The text below walks through data of patent US7429616B2, “Synthesis and complete stereochemical assignment of psymberin/irciniastatin for use as antitumor compounds” (Board of Regents, University of Texas System, priority 2005, dated 2008).

Structures are written as SMILES.

What all share (format): cell-based, human
What all share (conditions): average of three experiments, concentration range 0.2 nM to 20 μM; for GI50 / LC50: Homo sapiens; for GI50: read-out: GI50 (concentration that inhibits 50% growth); for LC50: read-out: LC50 (concentration that kills 50% of the cells)

The test system of one assay is SK-MEL-5. The experiment in a line: Cytotoxicity, CellTiter-Glo Luminescent Cell Viability Assay, SK-MEL-5. How it is done: (§1) The cytotoxicities of compounds 28-a, 28-b, and 29-a were evaluated against the human cancer cell lines HeLa, SK-MEL-5, and SK-MEL-28. The cytotoxicity evaluations were performed, over a concentration range of 0.2 nM to 20 μM, using the CellTiter-Glo™ Luminescent Cell Viability Assay, a product of Promega Corporation (Madison, Wis. USA), according to the protocol detailed in Promega's Technical Bulletin No. 288. Each value is the average value obtained from three experiments. GI50 is the concentration that inhibits 50% growth; TGI is the concentration that inhibits 100% growth; and LC50 is the concentration that kills 50% of the cells.
In general terms: Cellular ATP, detected with luciferase, serves as a proxy for viable cell number.

For another assay, the system named is HeLa. As to the kind of experiment: Cytotoxicity, CellTiter-Glo Luminescent Cell Viability Assay, HeLa. How it is done:
as §1

The test system of a further assay is SK-MEL-28. As to the kind of experiment: Cytotoxicity, CellTiter-Glo Luminescent Cell Viability Assay, SK-MEL-28. Here is the method:
as §1

For `C=C(C)CC(OC)[C@H](O)C(=O)N[C@@H](OC)[C@@H]1C[C@@H](O)C(C)(C)[C@@H](C[C@H](O)C(C)C2Cc3c(C)c(O)cc(O)c3C(=O)O2)O1` (stereo partly drawn) [Compound 28-a, psymberin], in the assay on SK-MEL-5, the GI50 turned out to be 0.3 nM, the LC50 stood at 1.3 nM and the “TGI (concentration that inhibits 100% growth)” value amounted to 0.7 nM. Besides, in the assay on HeLa, the GI50 amounted to 0.23 nM, the LC50 amounted to 1.6 nM and the “TGI (concentration that inhibits 100% growth)” value is reported as 0.90 nM. Besides, in the assay with SK-MEL-28, the GI50 turned out to be 0.23 nM, the LC50 stood at 1.2 nM and the “TGI (concentration that inhibits 100% growth)” value is listed as 0.7 nM.

As for `C=C(C)C[C@H](OC)[C@H](O)C(=O)N[C@H](OC)[C@@H]1C[C@@H](O)C(C)(C)C(CC(O)[C@@H](C)C2Cc3c(C)c(O)cc(O)c3C(=O)O2)O1` (stereo partly drawn) [Compound 28-b], in the assay on SK-MEL-5, the GI50 came to 300 nM, the LC50 turned out to be 1100 nM and the “TGI (concentration that inhibits 100% growth)” value came out at 700 nM. Also, in the assay on HeLa, the GI50 stood at 80 nM, the LC50 came out at 900 nM and the “TGI (concentration that inhibits 100% growth)” value is recorded as 200 nM. In addition, in the assay with SK-MEL-28, the GI50 worked out at 110 nM, the LC50 turned out to be 900 nM and the “TGI (concentration that inhibits 100% growth)” value came out at 400 nM.

In the case of `C=C(C)C[C@@H](OC)[C@H](O)C(=O)N[C@@H](OC)[C@@H]1C[C@@H](O)C(C)(C)C(CC(O)[C@@H](C)C2Cc3c(C)c(O)cc(O)c3C(=O)O2)O1` (stereo partly drawn) [Compound 29-a], in the assay on SK-MEL-5, the GI50 was found to be 300 nM, the LC50 came out at 1700 nM and the “TGI (concentration that inhibits 100% growth)” value is listed as 800 nM. Also, in the assay on HeLa, the GI50 was found to be 60 nM, the LC50 was 900 nM and the “TGI (concentration that inhibits 100% growth)” value amounted to 200 nM. For the same compound, in the assay on SK-MEL-28, the GI50 was found to be 200 nM, the LC50 worked out at 1100 nM and the “TGI (concentration that inhibits 100% growth)” value came out at 550 nM.
